The results in this text go back to PubChem BioAssay (NCI).

The structures appear in SMILES notation.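 1) Cells in 96-well plates. 2) Compound, 48 h, 5 concentrations. 3) Linear interpolation between surrounding doses. 4) Unreached endpoint = highest concentration. The concentration for 50% growth inhibition is given as GI50. The concentration for full growth arrest is given as TGI.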 Where only a bound is given, the exact number is not on record here.

Some test systems named below: M14 melanoma; HOP-62 NSCLC; SF-268 CNS; SNB-75 CNS; OVCAR-3 ovarian; UACC-62 melanoma; OVCAR-4 ovarian; IGROV1 ovarian; HCT-116 colon; MALME-3M melanoma.
What all share (experiment): NCI tumour cell line growth inhibition, 48 h

For the molecule `COc1cc(O)c2c(=O)c(OC)c(-c3ccc(OC)c(OC)c3)oc2c1.[Zn+2]`, the GI50 in the assay with M14 melanoma is 45.4 µM; in the assay on HOP-62 NSCLC it was 2870 nM; with SF-268 CNS it was 12.9 µM; with OVCAR-3 ovarian it was 14.1 µM; with UACC-62 melanoma, 11.7 µM; in the assay with OVCAR-4 ovarian, 4.19 µM. In addition, the GI50 in the assay with IGROV1 ovarian is 29.8 µM; in the assay on HCT-116 colon, 22.6 µM; in the assay with MALME-3M melanoma it was 33.3 µM. Moreover, the TGI in the assay on M14 melanoma is greater than 100 µM; with HOP-62 NSCLC, 11.4 µM; with SF-268 CNS, greater than 100 µM; with SNB-75 CNS, 8.79 µM; in the assay with OVCAR-3 ovarian, 35.7 µM; with UACC-62 melanoma, greater than 100 µM. Besides, the TGI in the assay on OVCAR-4 ovarian is 32.2 µM; with IGROV1 ovarian, greater than 100 µM; in the assay on HCT-116 colon, greater than 100 µM; in the assay with MALME-3M melanoma, greater than 100 µM.
Take `NC(=S)N/N=C1\CC(c2ccccc2)Nc2ccccc21` (stereo not drawn): the TGI with M14 melanoma was greater than 100 µM; in the assay on SF-268 CNS, greater than 100 µM; in the assay on SNB-75 CNS it was 49.1 µM; with OVCAR-3 ovarian, greater than 100 µM; in the assay on UACC-62 melanoma it was greater than 100 µM; in the assay on IGROV1 ovarian, greater than 100 µM. The molecule also came in with a TGI with MALME-3M melanoma of 97 µM.
Consider `CC(=O)Oc1cc(/C=C/c2ccc(O)cc2)cc(OC(C)=O)c1`, for which the TGI in the assay on M14 melanoma was greater than 100 µM; in the assay with HOP-62 NSCLC, greater than 100 µM; with SF-268 CNS, greater than 100 µM; in the assay on SNB-75 CNS, greater than 100 µM; in the assay on OVCAR-3 ovarian it was greater than 100 µM; with UACC-62 melanoma, 67.3 µM. The TGI in the assay on OVCAR-4 ovarian, with IGROV1 ovarian, with HCT-116 colon and in the assay with MALME-3M melanoma was greater than 100 µM each time.
Regarding `COc1ccc(OC)c([N+](=O)[O-])c1-c1nc2sc(C)c(C)n2c1/C=N/N=C(N)N`, the TGI with M14 melanoma, with HOP-62 NSCLC, with SF-268 CNS, in the assay with OVCAR-3 ovarian, with UACC-62 melanoma and in the assay with OVCAR-4 ovarian was greater than 100 µM each time. Besides, the TGI with IGROV1 ovarian, in the assay on HCT-116 colon and in the assay with MALME-3M melanoma was greater than 100 µM throughout.
Consider `CC(=O)C(N=NC1CCC(S(=O)(=O)NB2N=CS2)CC1)C(=O)Nc1ccccc1C` (stereo not drawn), for which the TGI in the assay on M14 melanoma was 35.5 µM; in the assay with HOP-62 NSCLC, 34.7 µM; in the assay with SF-268 CNS it was 30.8 µM; in the assay on SNB-75 CNS it was 33.8 µM; in the assay with OVCAR-3 ovarian, 27 µM; with UACC-62 melanoma, 34.8 µM. Further, the TGI amounted to 74.1 µM in the assay on OVCAR-4 ovarian, 35.2 µM with IGROV1 ovarian, 26.3 µM with HCT-116 colon and 30.5 µM with MALME-3M melanoma.
Turning to `C[N+]1(C)C/C(=C\c2ccc(O)cc2)C(=O)/C(=C/c2ccc(O)cc2)C1`, the TGI in the assay with M14 melanoma, in the assay with HOP-62 NSCLC, in the assay on SF-268 CNS, in the assay on SNB-75 CNS, with OVCAR-3 ovarian and in the assay with UACC-62 melanoma was greater than 100 µM throughout. Besides, the TGI in the assay on OVCAR-4 ovarian, in the assay with IGROV1 ovarian, in the assay on HCT-116 colon and in the assay with MALME-3M melanoma was greater than 100 µM each time.
Turning to `N=C(N)SCCN1CCCCC1`, the TGI in the assay on M14 melanoma is 50.3 µM; in the assay with HOP-62 NSCLC, greater than 100 µM; in the assay on SF-268 CNS it was greater than 100 µM; with SNB-75 CNS, 94.1 µM; in the assay on OVCAR-3 ovarian it was 43.9 µM; with UACC-62 melanoma, 55.2 µM. Also, the TGI in the assay with OVCAR-4 ovarian is greater than 100 µM; in the assay on IGROV1 ovarian, greater than 100 µM; with HCT-116 colon, greater than 100 µM; in the assay on MALME-3M melanoma it was 32.1 µM.
In the case of `Nc1ccc(S(=O)(=O)NCCS(=O)(=O)O)cc1`, the TGI with M14 melanoma, in the assay on HOP-62 NSCLC, with SF-268 CNS, with SNB-75 CNS, in the assay with OVCAR-3 ovarian and in the assay with UACC-62 melanoma was greater than 100 µM each time. Moreover, the TGI in the assay with OVCAR-4 ovarian, with IGROV1 ovarian, in the assay on HCT-116 colon and with MALME-3M melanoma was greater than 100 µM each time.
For the molecule `C[N+]1(c2ccccc2)C=C(c2ccccc2)SC1=S` (stereo not drawn), the TGI with M14 melanoma, with HOP-62 NSCLC, with SF-268 CNS, with OVCAR-3 ovarian, in the assay on UACC-62 melanoma and in the assay on IGROV1 ovarian was greater than 100 µM throughout. The TGI with HCT-116 colon and in the assay on MALME-3M melanoma was greater than 100 µM throughout.
`Cc1cccc(/C=C2/C(=O)Nc3ccccc32)n1`: the TGI in the assay on M14 melanoma was 31.2 µM; with HOP-62 NSCLC, 33.3 µM; with SF-268 CNS it was 42.5 µM; in the assay with SNB-75 CNS, greater than 100 µM; in the assay on OVCAR-3 ovarian it was 39.3 µM; in the assay with UACC-62 melanoma, 25.8 µM. In addition, the TGI in the assay on OVCAR-4 ovarian was 56.7 µM; in the assay on IGROV1 ovarian it was greater than 100 µM; in the assay with HCT-116 colon, 26.2 µM; in the assay on MALME-3M melanoma, 49.1 µM. Further, the GI50 with UACC-62 melanoma is 10.2 µM; with IGROV1 ovarian it was 24.4 µM.
As for `O=C1O/C(=C\C=C\CO)C=C1/C=C/CO`, the TGI is 43.1 µM in the assay on M14 melanoma; 58.2 µM with SF-268 CNS; greater than 100 µM with SNB-75 CNS; 48.8 µM with OVCAR-3 ovarian; 39.8 µM in the assay on UACC-62 melanoma; greater than 100 µM with OVCAR-4 ovarian. The TGI worked out at 38.6 µM in the assay with IGROV1 ovarian, 29.9 µM with HCT-116 colon and 32.5 µM in the assay on MALME-3M melanoma.
With `Cc1ncc(COP(=O)(O)O)c(C)c1O`, the TGI in the assay on M14 melanoma, with HOP-62 NSCLC, in the assay with SF-268 CNS, with OVCAR-3 ovarian, with UACC-62 melanoma and with OVCAR-4 ovarian was greater than 100 µM throughout. Further, the TGI with IGROV1 ovarian, in the assay with HCT-116 colon and in the assay on MALME-3M melanoma was greater than 100 µM throughout.
Take `CCOc1ccc(N=Nc2ccc(-c3ccc(N=Nc4c(O)ccc5cc(S(=O)(=O)O)cc(S(=O)(=O)O)c45)cc3)cc2)cc1`: the TGI in the assay on M14 melanoma, with HOP-62 NSCLC, with SF-268 CNS, in the assay on OVCAR-3 ovarian, in the assay on UACC-62 melanoma and in the assay with OVCAR-4 ovarian was greater than 100 µM each time. For the same molecule, the TGI with IGROV1 ovarian, with HCT-116 colon and in the assay with MALME-3M melanoma was greater than 100 µM throughout.
Take `CCCCCCCCc1ccc(CCC(N)(CO)CO)cc1`: the GI50 is 1690 nM with HOP-62 NSCLC; 2130 nM in the assay with SNB-75 CNS; 1.94 µM with OVCAR-3 ovarian; 1.72 µM in the assay on UACC-62 melanoma; 1.89 µM in the assay on IGROV1 ovarian; 2.32 µM in the assay with MALME-3M melanoma. Further, the TGI with HOP-62 NSCLC was determined as 3.08 µM; in the assay with SNB-75 CNS, 4.2 µM; with OVCAR-3 ovarian, 3.48 µM; with UACC-62 melanoma, 3.31 µM; in the assay on IGROV1 ovarian, 3.9 µM; in the assay with MALME-3M melanoma it was 5.8 µM.
Regarding `C=C(C[C@@H](O)[C@H](C)NC(=O)OCc1ccccc1)C(=O)OC(C)(C)C`, the TGI with M14 melanoma, in the assay on HOP-62 NSCLC, in the assay with SF-268 CNS, in the assay with SNB-75 CNS, with OVCAR-3 ovarian and in the assay on UACC-62 melanoma was greater than 100 µM throughout. The TGI with OVCAR-4 ovarian, in the assay with IGROV1 ovarian, in the assay on HCT-116 colon and in the assay on MALME-3M melanoma was greater than 100 µM in each case.
In the case of `O=S(=O)([O-])[O-].[Fe+2].[OH2+]c1c(Cl)cc(Cl)cc1/C=N/Nc1ccccn1`, the TGI with M14 melanoma amounted to 7.44 µM; with HOP-62 NSCLC, 3.56 µM; in the assay with SF-268 CNS, 1.94 µM; in the assay on SNB-75 CNS, 1.64 µM; with OVCAR-3 ovarian, 0.578 µM; in the assay on UACC-62 melanoma, 3.38 µM. For the same molecule, the TGI stood at 3.13 µM in the assay on IGROV1 ovarian, 2.63 µM in the assay on HCT-116 colon and 3.57 µM in the assay with MALME-3M melanoma.
